Results from ChEMBL document CHEMBL1201862, “PubChem BioAssay data set” (2004).
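A five-concentration, 48-hour dose response in 96-well plates underlies each endpoint, interpolated linearly between surrounding concentrations. GI50 = concentration required for 50% inhibition of growth.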 Calls of active or inactive are those of the source. No stated cut-off is given here; in the data, active = GI50 up to about 1.1 µM and inactive = higher.

Experiments:
Assay in all cases: NCI tumour cell line growth inhibition, 48 h
[1] = tested on: A498
[2] = tested on: ACHN
[3] = tested on: COLO 205
[4] = tested on: HCT-116
[5] = tested on: HT-29
[6] = tested on: LOX IMVI
[7] = tested on: LXFL 529
[8] = tested on: M14
[9] = tested on: NCI-H226
[10] = tested on: NCI-H23
[11] = tested on: NCI-H460
[12] = tested on: RXF 393
[13] = tested on: SK-MEL-5
[14] = tested on: SK-OV-3
[15] = tested on: SNB-19
[16] = tested on: TK-10
[17] = tested on: UACC-257

Measured: GI50

Cc1cc(C)n(-c2ccnc3cc(Cl)ccc23)n1
inactive: [1] > 100 µM | [2] > 100 µM | [3] > 100 µM | [4] > 100 µM | [5] > 100 µM | [6] > 100 µM | [7] > 100 µM | [8] > 100 µM | [9] > 100 µM | [10] > 100 µM | [11] > 100 µM | [12] > 100 µM | [13] > 100 µM | [14] > 100 µM | [15] > 100 µM | [16] > 100 µM | [17] > 100 µM

O=[As](O)(O)c1cc(/N=N/c2ccc(-c3ccc(/N=N/c4cc([As](=O)(O)O)c(O)cc4O)cc3)cc2)c(O)cc1O
inactive: [1] > 56 µM | [2] > 100 µM | [3] > 100 µM | [4] > 100 µM | [5] > 95.1 µM | [6] > 100 µM | [7] > 100 µM | [8] > 53 µM | [9] > 100 µM | [10] > 100 µM | [11] > 100 µM | [12] > 100 µM | [13] > 88.1 µM | [14] > 100 µM | [15] > 100 µM | [16] > 100 µM | [17] > 100 µM

CO[C@@]12CC(=O)/C(=C(O)\C=C\c3ccccc3)C(=O)[C@]1(OC)Cc1ccccc1O2
inactive: [1] 33.3 µM | [2] 25.4 µM | [3] 47.5 µM | [4] 30.1 µM | [5] 37.5 µM | [6] 32.3 µM | [7] 33.7 µM | [8] 28.1 µM | [9] 22.5 µM | [10] 20.6 µM | [11] 28.9 µM | [12] 18.8 µM | [13] 36.5 µM | [14] 54 µM | [15] 30.1 µM | [16] 42.8 µM | [17] 30.1 µM

Cc1cccc(NC(=O)C(=O)C(C(=O)c2ccc3ccccc3c2)C2OC(=O)c3ccccc32)c1C (stereo not drawn)
inactive: [1] 10.1 µM | [2] 28.1 µM | [3] 11.5 µM | [4] 9.68 µM | [5] 28.1 µM | [6] 13.2 µM | [7] 9.55 µM | [8] 14.4 µM | [9] 2.39 µM | [10] 8.99 µM | [11] 9.16 µM | [12] 2.39 µM | [13] 12.4 µM | [14] 12.7 µM | [15] 5.4 µM | [16] 23.3 µM | [17] 10.7 µM
